Results from patent US12121521B2, “Uses of salt-inducible kinase (SIK) inhibitors for treating osteoporosis” (The General Hospital Corporation, priority 2016, dated 2024).
Entries after “also recorded” stand apart in the source; their conditions may differ.

Columns and labels:
Ocy454 cells = assay: cAMP radioimmunoassay; assay type: cell-based, mouse; settings: 20 minutes; FIG. 14B
Experimental: Cells, in 96 well plates, were treated with indicated ligands for 20 minutes at room temperature in the presence of the phosphodiesterase inhibitor 3-isobutyl-1-methylxanthine (IBMX, Sigma I5879, 2 mM). The medium was then removed and cells were lysed in 50 mM HCl and transferred to −80C. Thawed lysates were diluted 1:5 with dH2O, and an 10 μl aliquot was assessed for cAMP content by radioimmunoassay using ^125I-cAMP analog as a tracer and unlabeled cAMP to generate a standard curve.

C57B/6 mice = assay: Acute YKL-05-093 administration: bone gene expression and sclerostin immunohistochemistry; assay type: in vivo, mouse; settings: 2 hours
Experimental: FIGS. 7A to 7I: Effects of YKL-05-093 administration on bone gene expression in vivo. (FIGS. 7A and 7B) 8 week old C57B/6 mice (n=4/group) were treated with the indicated dose of YKL-05-093 via intraperitoneal injection. 2 hours later, bone RNA was isolated and transcript abundance was measured by RT-qPCR. # indicates p<0.05 versus vehicle, and * indicates p<0.01 versus vehicle by Student's unpaired 2 tailed t-test. (FIG. 7C) Left: sclerostin immunohistochemistry was performed 2 hours after intraperitoneal injection with either vehicle or YKL-05-093 (20 μmol/kg). Right: quantification of sclerostin-positive cortical osteocytes, n=4 mice per treatment group, * indicated p<0.01 versus vehicle. (FIGS. 7D to 7I) Genes regulated by PTH and YKL-05-093 in vitro are also regulated by YKL-05-093 in vivo. Mice were treated with YKL-05-093 (20 μmol/kg) and bone RNA collected 2 hours later as in FIG. 7A. * indicates p<0.05 versus vehicle. In FIGS. 7A, 7B, and 7D to 7I, “umol” denotes μmol. In FIGS. 7D to 7I, each of the right bars corresponds to YKL-05-093.
All animals were housed in the Center for Comparative Medicine at the Massachusetts General Hospital, and all experiments were approved by the hospital's Subcommittee on Research Animal Care. HDAC5-null mice (70) and HDAC4 f/f mice (71) were generously provided by Dr. Eric Olson (University of Texas Southwestern Medical Center, Dallas, TX) and were backcrossed to C57B/6 mice for at least 6 generations. DMP1-Cre mice (27) were generously provided by Dr. Jian (Jerry) Feng (Texas A&M University, Baylor College of Dentistry, Dallas, TX). “DKO” HDAC4/5 mice were of the following genotype: HDAC4f/f; HDAC5−/−; DMP1-Cre. SIK2 f/f mice were as described (40), and were bred to DMP1-Cre animals to generate SIK2^OcyKO mice. ES cells carrying the targeted SOST allele Sost^tm1(KOMP)Vleg, in which the SOST coding sequence has been replaced by LacZ and floxed Neo cassette, were obtained from the Knockout Mouse Project (KOMP) Repository. Clone VG10069-BE8 was injected into blastocysts, and the resulting SOST+/− mice were crossed to HDAC5 mutant animals to generate compound heterozygous mice. In all instances, skeletal phenotypes were evaluated in 8 week-old sex-matched littermates. For acute effects of PTH on bone gene expression, animals were treated with PTH (1-34, 300 μg/kg, subcutaneous administration) and then sacrificed 90 minutes later. For acute effects of YKL-05-093 on bone gene expression, animals were treated with the indicated doses of compound (dissolved in PBS+25 mM HCl) or solvent via intraperitoneal injections, and sacrificed 2 hours later. […]

male mice = assay: YKL-05-099 once daily for 2 weeks: bone RNA, static and dynamic histomorphometry; assay type: in vivo, mouse; settings: 6 mg/kg once daily i.p.
Experimental: Whole cell extracts were generated, followed by immunoblotting. […] RNA was prepared, and gene expression analyzed by RT-qPCR. […] 2 hours later, animals were sacrificed, RNA was prepared from femurs, and gene expression analyzed by RT-qPCR. […] Animals were sacrificed 2 hours after the final dose, and RNA from femurs analyzed for the indicated genes. BGLAP encodes osteocalcin. * indicated p<0.01 versus vehicle, # indicates p<0.05 versus vehicle. (FIGS. 8E to 8K), static and dynamic histomorphometry were performed on the tibia from the same mice as in FIG. 8D. Each data point represents an individual mouse, p values for each difference are shown on the graph. (FIG. 8L) Representative photomicrograph showing increased osteoblasts on cancellous bone surfaces from YKL-05-099-treated mice.
To determine effects on bone mass and cellular composition/activity, static and dynamic histomorphometry were performed. […] Other than the observed reduction in osteoclast numbers, these findings are quite similar to the effects of once daily PTH treatment.
All animals were housed in the Center for Comparative Medicine at the Massachusetts General Hospital, and all experiments were approved by the hospital's Subcommittee on Research Animal Care. HDAC5-null mice (70) and HDAC4 f/f mice (71) were generously provided by Dr. Eric Olson (University of Texas Southwestern Medical Center, Dallas, TX) and were backcrossed to C57B/6 mice for at least 6 generations. DMP1-Cre mice (27) were generously provided by Dr. Jian (Jerry) Feng (Texas A&M University, Baylor College of Dentistry, Dallas, TX). “DKO” HDAC4/5 mice were of the following genotype: HDAC4f/f; HDAC5−/−; DMP1-Cre. SIK2 f/f mice were as described (40), and were bred to DMP1-Cre animals to generate SIK2^OcyKO mice. ES cells carrying the targeted SOST allele Sost^tm1(KOMP)Vleg, in which the SOST coding sequence has been replaced by LacZ and floxed Neo cassette, were obtained from the Knockout Mouse Project (KOMP) Repository. Clone VG10069-BE8 was injected into blastocysts, and the resulting SOST+/− mice were crossed to HDAC5 mutant animals to generate compound heterozygous mice. In all instances, skeletal phenotypes were evaluated in 8 week-old sex-matched littermates. For acute effects of PTH on bone gene expression, animals were treated with PTH (1-34, 300 μg/kg, subcutaneous administration) and then sacrificed 90 minutes later. For acute effects of YKL-05-093 on bone gene expression, animals were treated with the indicated doses of compound (dissolved in PBS+25 mM HCl) or solvent via intraperitoneal injections, and sacrificed 2 hours later. […] For in vivo sclerostin antibody treatment, mice were treated twice weekly with sclerostin antibody (50 mg/kg, subcutaneous administration, generously provided by Dr. Michael Ominsky, Amgen) for 6 weeks. Power calculations were performed based on pilot experiments in which standard deviations and magnitudes of effect sizes were estimated. For experiments in which mice were treated with either vehicle or PTH (or YKL-05-093), mice were assigned to alternating treatment groups in consecutive order.
Right tibia from 8-week-old mice were subjected to bone histomorphometric analysis. The mice were injected 20 mg/kg body weight of calcein and 40 mg/kg body weight of demeclocycline on 7 and 2 days before necropsy, respectively. The tibia was dissected and fixed in 70% ethanol for 3 days. Fixed bones were dehydrated in graded ethanol, then infiltrated and embedded in methylmethacrylate without demineralization. Undecalcified 4-μm-thick longitudinal sections were obtained using microtome (RM2255, Leica Biosystems., IL, USA). Sections were left unstained for dynamic parameters measurement, and consecutive sections were stained with tartrate-resistant acid phosphatase and counterstained with toluidine blue for measurement of cellular parameters. […]

Row | SMILES | cAMP levels (Ocy454 cells) | bone expression of genes co-regulated by PTH and YKL-05-093 in vitro (C57B/6 mice; 20 μmol/kg) | sclerostin protein levels by immunohistochemistry (C57B/6 mice; 20 μmol/kg) | RANKL in osteocyte-enriched bone RNA (C57B/6 mice; intraperitoneal) | SOST in osteocyte-enriched bone RNA (C57B/6 mice; intraperitoneal) | RANKL levels in bone RNA (male mice) | SOST in bone RNA (male mice) | bone formation rate (male mice) | cancellous bone mass (male mice) | matrix apposition rate (male mice) | mineralizing surface (male mice) | osteoblast marker genes (osteocalcin and COL1A1) (male mice) | osteoblast numbers (male mice) | osteoclast numbers (male mice) | osteoid surface (male mice)
1 | COc1ccc(N2C(=O)N(c3c(C)cccc3C)Cc3cnc(Nc4ccc(C5CCN(C)CC5)c(OC)c4)nc32)c(OC)c1 [YKL-05-093] | does not induce cAMP generation; also recorded: without increasing cAMP levels | significant regulation of VDR, WNT4, NR4A2, NUAK1, PDGFA, and CD200 expression | reductions in sclerostin protein levels | RANKL up-regulation | dose-dependent SOST suppression |  |  |  |  |  |  |  |  |  | 
2 | COc1ccc(N2C(=O)N(c3c(C)cccc3Cl)Cc3cnc(Nc4ccc(C5CCN(C)CC5)cc4OC)nc32)nc1 [YKL-05-099] |  |  |  |  |  | increased | trend towards reduced SOST | increased bone formation rate | increased cancellous bone mass | trend towards increased matrix apposition rate | increased mineralizing surface | significantly increased | increased osteoblast numbers | reduced osteoclast numbers | increased
